The target in this test is T1, active p38 alpha enzyme (Upstate Biotechnology) (Homo sapiens, UniProt Q16539).
T1 construct: purchased Upstate Biotechnology
The experiment in a line: p38α biochemical assay (ATP turnover, luminescent detection, Cambrex PKlight). Particulars: p38α kinase; Table 1 Biological Activity. The method, boiled down:
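Compounds in DMSO are added to active p38 alpha with MapkapK2 whole protein and ATP at 1.4 uM final. Reactions then run for 2 hours at 30C. A luminescent reagent is added last to quantify total ATP consumed.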

Broadly, the pIC50 is the IC50 on a negative log10 scale, so that one unit is a factor of ten.

Structures are written as SMILES. pIC50: −log10 of the molar value.

T1 sequence (Q16539 whole entry): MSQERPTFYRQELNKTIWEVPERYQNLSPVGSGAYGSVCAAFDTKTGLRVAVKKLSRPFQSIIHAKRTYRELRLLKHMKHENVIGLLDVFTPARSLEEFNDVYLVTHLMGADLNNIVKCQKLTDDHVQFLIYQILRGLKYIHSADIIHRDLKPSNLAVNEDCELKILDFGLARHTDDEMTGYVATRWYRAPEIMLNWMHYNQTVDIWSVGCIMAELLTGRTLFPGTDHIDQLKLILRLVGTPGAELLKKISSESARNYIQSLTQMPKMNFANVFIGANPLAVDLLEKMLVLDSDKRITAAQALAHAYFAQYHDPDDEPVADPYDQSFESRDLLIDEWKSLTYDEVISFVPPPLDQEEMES

`CC(C)NC(=O)c1csc(-c2c(-c3ccc(F)cc3)n[nH]c2C2CCN(C(=O)C3CCCCC3)CC2)n1` [Example 832]: the pIC50 was under 6.00.

The compound `CC(C)NC(=O)c1csc(-c2c(-c3ccc(F)cc3)n[nH]c2C2CCN(C(=O)c3cscn3)CC2)n1` [Example 833] gave a pIC50 of at least 6.00.

Take `CCOC(=O)CC(=O)N1CCC(c2[nH]nc(-c3ccc(F)cc3)c2-c2nc(C(=O)NC(C)C)cs2)CC1` [Example 834]: the pIC50 was at least 6.00.

As for `Cc1cccc(C(=O)N2CCC(c3[nH]nc(-c4ccc(F)cc4)c3-c3nc(C(=O)NC(C)C)cs3)CC2)c1` [Example 835], the pIC50 is under 6.00.

As for `Cc1ccccc1C(=O)N1CCC(c2[nH]nc(-c3ccc(F)cc3)c2-c2nc(C(=O)NC(C)C)cs2)CC1` [Example 836], the pIC50 was at least 6.00.

`Cc1ccc(C(=O)N2CCC(c3[nH]nc(-c4ccc(F)cc4)c3-c3nc(C(=O)NC(C)C)cs3)CC2)cc1` [Example 837]: the pIC50 is under 6.00.

Compound `CC(C)NC(=O)c1csc(-c2c(-c3ccc(F)cc3)n[nH]c2C2CCN(C(=O)c3cccc(O)c3)CC2)n1` [Example 838] showed a pIC50 of at least 6.00.

`CC(C)NC(=O)c1csc(-c2c(-c3ccc(F)cc3)n[nH]c2C2CCN(C(=O)c3ccccc3O)CC2)n1` [Example 839]: the pIC50 is under 6.00.

For `CC(C)NC(=O)c1csc(-c2c(-c3ccc(F)cc3)n[nH]c2C2CCN(C(=O)c3ccc(F)cc3)CC2)n1` [Example 840], the pIC50 is under 6.00.

`CC(C)NC(=O)c1csc(-c2c(-c3ccc(F)cc3)n[nH]c2C2CCN(C(=O)c3cccc(F)c3)CC2)n1` [Example 841]: the pIC50 is under 6.00.

In turn, `CCCCCCCC(=O)N1CCC(c2[nH]nc(-c3ccc(F)cc3)c2-c2nc(C(=O)NC(C)C)cs2)CC1` [Example 842] showed a pIC50 of under 6.00.

`CC(C)NC(=O)c1csc(-c2c(-c3ccc(F)cc3)n[nH]c2C2CCN(C(=O)c3cccc(C#N)c3)CC2)n1` [Example 844] had a pIC50 of under 6.00.

Turning to `CC(C)NC(=O)c1csc(-c2c(-c3ccc(F)cc3)n[nH]c2C2CCN(C(=O)/C=C/c3ccccc3)CC2)n1` [Example 845], the pIC50 is under 6.00.

In turn, `CC(C)NC(=O)c1csc(-c2c(-c3ccc(F)cc3)n[nH]c2C2CCN(C(=O)c3ccccc3C=O)CC2)n1` [Example 846] had a pIC50 of at least 6.00.

Compound `CC(C)NC(=O)c1csc(-c2c(-c3ccc(F)cc3)n[nH]c2C2CCN(C(=O)c3ccc(C=O)cc3)CC2)n1` [Example 847] gave a pIC50 of at least 6.00.

Compound `Cc1ccc(C(=O)N2CCC(c3[nH]nc(-c4ccc(F)cc4)c3-c3nc(C(=O)NC(C)C)cs3)CC2)c(C)c1` [Example 848] showed a negative logarithm of the IC50 (pIC50) of under 6.00.

`Cc1ccccc1CC(=O)N1CCC(c2[nH]nc(-c3ccc(F)cc3)c2-c2nc(C(=O)NC(C)C)cs2)CC1` [Example 849] had a pIC50 of under 6.00.

Turning to `Cc1cccc(C(=O)N2CCC(c3[nH]nc(-c4ccc(F)cc4)c3-c3nc(C(=O)NC(C)C)cs3)CC2)c1C` [Example 850], the pIC50 is under 6.00.

In the case of `Cc1ccc(C)c(C(=O)N2CCC(c3[nH]nc(-c4ccc(F)cc4)c3-c3nc(C(=O)NC(C)C)cs3)CC2)c1` [Example 851], the pIC50 was under 6.00.

`Cc1cc(C)cc(C(=O)N2CCC(c3[nH]nc(-c4ccc(F)cc4)c3-c3nc(C(=O)NC(C)C)cs3)CC2)c1` [Example 852] had a pIC50 of under 6.00.

In turn, `Cc1ccc(C(=O)N2CCC(c3[nH]nc(-c4ccc(F)cc4)c3-c3nc(C(=O)NC(C)C)cs3)CC2)cc1C` [Example 853] had a pIC50 of under 6.00.

Compound `CCc1ccc(C(=O)N2CCC(c3[nH]nc(-c4ccc(F)cc4)c3-c3nc(C(=O)NC(C)C)cs3)CC2)cc1` [Example 854] gave a pIC50 of under 6.00.

With `COc1ccc(C(=O)N2CCC(c3[nH]nc(-c4ccc(F)cc4)c3-c3nc(C(=O)NC(C)C)cs3)CC2)cc1` [Example 855], the pIC50 was under 6.00.

Consider `Cc1cccc(C(=O)N2CCC(c3[nH]nc(-c4ccc(F)cc4)c3-c3nc(C(=O)NC(C)C)cs3)CC2)c1O` [Example 856], for which the pIC50 was under 6.00.

Compound `CC(C)NC(=O)c1csc(-c2c(-c3ccc(F)cc3)n[nH]c2C2CCN(C(=O)Cc3ccccc3O)CC2)n1` [Example 857] had a pIC50 of at least 6.00.

`CC(C)NC(=O)c1csc(-c2c(-c3ccc(F)cc3)n[nH]c2C2CCN(C(=O)Cc3cccc(O)c3)CC2)n1` [Example 858] showed a pIC50 of under 6.00.

As for `Cc1ccc(O)c(C(=O)N2CCC(c3[nH]nc(-c4ccc(F)cc4)c3-c3nc(C(=O)NC(C)C)cs3)CC2)c1` [Example 859], the negative logarithm of the IC50 (pIC50) is under 6.00.

The compound `CC(C)NC(=O)c1csc(-c2c(-c3ccc(F)cc3)n[nH]c2C2CCN(C(=O)c3cc(O)ccc3O)CC2)n1` [Example 860] gave a pIC50 of under 6.00.

For the compound `CC(C)NC(=O)c1csc(-c2c(-c3ccc(F)cc3)n[nH]c2C2CCN(C(=O)c3cccc(O)c3O)CC2)n1` [Example 861], the pIC50 is under 6.00.

`CC(C)NC(=O)c1csc(-c2c(-c3ccc(F)cc3)n[nH]c2C2CCN(C(=O)c3ccc(O)cc3O)CC2)n1` [Example 862] showed a pIC50 of under 6.00.

`Cc1ccc(C(=O)N2CCC(c3[nH]nc(-c4ccc(F)cc4)c3-c3nc(C(=O)NC(C)C)cs3)CC2)cc1F` [Example 863] showed a pIC50 of under 6.00.

As for `Cc1ccc(F)cc1C(=O)N1CCC(c2[nH]nc(-c3ccc(F)cc3)c2-c2nc(C(=O)NC(C)C)cs2)CC1` [Example 864], the pIC50 is under 6.00.

Regarding `CC(C)NC(=O)c1csc(-c2c(-c3ccc(F)cc3)n[nH]c2C2CCN(C(=O)c3ccccc3Cl)CC2)n1` [Example 865], the pIC50 was under 6.00.

`CC(C)NC(=O)c1csc(-c2c(-c3ccc(F)cc3)n[nH]c2C2CCN(C(=O)c3ccc(Cl)nc3)CC2)n1` [Example 866] gave a pIC50 of under 6.00.

In the case of `CC(C)NC(=O)c1csc(-c2c(-c3ccc(F)cc3)n[nH]c2C2CCN(C(=O)c3cccnc3Cl)CC2)n1` [Example 867], the pIC50 is at least 6.00.

Compound `CC(C)NC(=O)c1csc(-c2c(-c3ccc(F)cc3)n[nH]c2C2CCN(C(=O)c3ccnc(Cl)c3)CC2)n1` [Example 868] showed a pIC50 of at least 6.00.

In the case of `CC(C)NC(=O)c1csc(-c2c(-c3ccc(F)cc3)n[nH]c2C2CCN(C(=O)c3cc(Cl)ccn3)CC2)n1` [Example 869], the pIC50 was at least 6.00.

Turning to `CC(C)NC(=O)c1csc(-c2c(-c3ccc(F)cc3)n[nH]c2C2CCN(C(=O)c3ccncc3Cl)CC2)n1` [Example 870], the pIC50 was at least 6.00.

Regarding `CC(C)NC(=O)c1csc(-c2c(-c3ccc(F)cc3)n[nH]c2C2CCN(C(=O)c3c(F)cccc3F)CC2)n1` [Example 871], the pIC50 was under 6.00.

In turn, `CC(C)NC(=O)c1csc(-c2c(-c3ccc(F)cc3)n[nH]c2C2CCN(C(=O)c3cccc(F)c3F)CC2)n1` [Example 872] showed a pIC50 of under 6.00.

As to `CC(C)NC(=O)c1csc(-c2c(-c3ccc(F)cc3)n[nH]c2C2CCN(C(=O)c3ccc(F)cc3F)CC2)n1` [Example 873], the pIC50 is under 6.00.

On to `CC(C)NC(=O)c1csc(-c2c(-c3ccc(F)cc3)n[nH]c2C2CCN(C(=O)c3cc(F)cc(F)c3)CC2)n1` [Example 874], for which the pIC50 is under 6.00.

For `CC(C)NC(=O)c1csc(-c2c(-c3ccc(F)cc3)n[nH]c2C2CCN(C(=O)c3ccc(F)c(F)c3)CC2)n1` [Example 875], the pIC50 was under 6.00.

For the compound `CC(CC(=O)N1CCC(c2[nH]nc(-c3ccc(F)cc3)c2-c2nc(C(=O)NC(C)C)cs2)CC1)CC(C)(C)C` (stereo not drawn) [Example 876], the pIC50 was under 6.00.

As for `CC(C)NC(=O)c1csc(-c2c(-c3ccc(F)cc3)n[nH]c2C2CCN(C(=O)c3cc4ccccc4o3)CC2)n1` [Example 877], the pIC50 is under 6.00.

As to `CC(C)NC(=O)c1csc(-c2c(-c3ccc(F)cc3)n[nH]c2C2CCN(C(=O)C3CCc4ccccc43)CC2)n1` (stereo not drawn) [Example 878], the pIC50 was under 6.00.

`CC(C)NC(=O)c1csc(-c2c(-c3ccc(F)cc3)n[nH]c2C2CCN(C(=O)C(Cl)(Cl)Cl)CC2)n1` [Example 879] had a pIC50 of under 6.00.

Consider `CC(C)NC(=O)c1csc(-c2c(-c3ccc(F)cc3)n[nH]c2C2CCN(C(=O)/C=C/c3ccccc3O)CC2)n1` [Example 880], for which the pIC50 was under 6.00.

Turning to `CC(=O)c1ccc(C(=O)N2CCC(c3[nH]nc(-c4ccc(F)cc4)c3-c3nc(C(=O)NC(C)C)cs3)CC2)cc1` [Example 881], the negative logarithm of the IC50 (pIC50) was under 6.00.

In the case of `CC(C)NC(=O)c1csc(-c2c(-c3ccc(F)cc3)n[nH]c2C2CCN(C(=O)/C=C/c3cccc(O)c3)CC2)n1` [Example 882], the pIC50 is under 6.00.

In turn, `CC(=O)c1cccc(C(=O)N2CCC(c3[nH]nc(-c4ccc(F)cc4)c3-c3nc(C(=O)NC(C)C)cs3)CC2)c1` [Example 883] showed a pIC50 of under 6.00.

Compound `CC(=O)c1ccccc1C(=O)N1CCC(c2[nH]nc(-c3ccc(F)cc3)c2-c2nc(C(=O)NC(C)C)cs2)CC1` [Example 884] had a pIC50 of under 6.00.

Regarding `CC(C)NC(=O)c1csc(-c2c(-c3ccc(F)cc3)n[nH]c2C2CCN(C(=O)c3ccc(C(C)C)cc3)CC2)n1` [Example 885], the pIC50 was under 6.00.

The compound `Cc1ccccc1CCC(=O)N1CCC(c2[nH]nc(-c3ccc(F)cc3)c2-c2nc(C(=O)NC(C)C)cs2)CC1` [Example 886] had a pIC50 of under 6.00.

Consider `Cc1cccc(CCC(=O)N2CCC(c3[nH]nc(-c4ccc(F)cc4)c3-c3nc(C(=O)NC(C)C)cs3)CC2)c1` [Example 887], for which the pIC50 was under 6.00.

`CCC(C(=O)N1CCC(c2[nH]nc(-c3ccc(F)cc3)c2-c2nc(C(=O)NC(C)C)cs2)CC1)c1ccccc1` (stereo not drawn) [Example 888]: the pIC50 is under 6.00.

`CCCc1ccc(C(=O)N2CCC(c3[nH]nc(-c4ccc(F)cc4)c3-c3nc(C(=O)NC(C)C)cs3)CC2)cc1` [Example 890] had a pIC50 of under 6.00.

The compound `CC(C)NC(=O)c1csc(-c2c(-c3ccc(F)cc3)n[nH]c2C2CCN(C(=O)c3ccc4c(c3)OCO4)CC2)n1` [Example 891] gave a pIC50 of under 6.00.

For `CC(C)NC(=O)c1csc(-c2c(-c3ccc(F)cc3)n[nH]c2C2CCCN(C(=O)/C=C/c3ccccc3F)CC2)n1` (stereo not drawn) [Example 892], the pIC50 is under 6.00.

As for `CCOc1ccccc1C(=O)N1CCC(c2[nH]nc(-c3ccc(F)cc3)c2-c2nc(C(=O)NC(C)C)cs2)CC1` [Example 893], the pIC50 was under 6.00.

The values above are taken from patent US20060252807A1, “Novel ortho-terphenyl inhibitors of p38 kinase and methods of treating inflammatory disorders” (Kalypsys, Inc., priority 2005, published 2006).
